# From patent US6143769A, “Phenylacetic acid benzylamides” (Karl Thomae GmbH, priority 1983, dated 2000)
# Read-outs that look alike come from different tables or passages of the source.
# Experiments:
# Format in all cases: in vivo, human
# [1] = Study 2: plasma concentration, HPLC; conditions: human, plasma, po
# Excerpt: Blood samples were taken at various times.
# [2] = Study 3: plasma concentration of active substance, single test subject; conditions: for Cmax: read-out: Maximum concentration; for Tmax: read-out: Time of peak concentration; for concentration at 1.5 h: 1.50 h; for concentration at 2.5 h: 2.50 h; for concentration at 3.5 h: 3.50 h
# glucose = assay: Study 5: plasma glucose after 1 mg AG-EE 388 ZW i.v., oral solution or capsule
# Excerpt: Blood samples were taken at different times.
structure (smiles),measurement,setting,value
"CCOc1cc(CC(=O)NC(CC(C)C)c2ccccc2N2CCCCC2)ccc1C(=O)O (racemic) [AG-EE 388 ZW, 2-ethoxy-4-[N-[1-(2-piperidino-phenyl)-3-methyl-1-butyl]aminocarbonylmethyl]-benzoic acid]",concentration at 0.5 h,"[1]; 2 mg, 2 mg tablet, 0.50 h",75.6 ng/mL
same,concentration at 0.75 h,"[1]; 2 mg, 2 mg tablet, 0.75 h",83.5 ng/mL
same,concentration at 1 h,"[1]; 2 mg, 2 mg tablet, 1.00 h",81.3 ng/mL
same,concentration at 1.5 h,"[1]; 2 mg, 2 mg tablet, 1.50 h",65.9 ng/mL
same,concentration at 2 h,"[1]; 2 mg, 2 mg tablet, 2.00 h",51.3 ng/mL
same,concentration at 3 h,"[1]; 2 mg, 2 mg tablet, 3.00 h",32.4 ng/mL
same,concentration at 5 h,"[1]; 2 mg, 2 mg tablet, 5.00 h",13.2 ng/mL
same,concentration at 6 h,"[1]; 2 mg, 2 mg tablet, 6.00 h",9.5 ng/mL
same,concentration at 9 h,"[1]; 2 mg, 2 mg tablet, 9.00 h",5.2 ng/mL
same,Cmax,"[1]; 2 mg capsule p.o., read-out: Maximum concentration",74 ± 15 ng/mL
same,Active substance concentration,"[2]; 2 mg, 5.00 h",0 ng/mL
same,Active substance concentration,"[2]; 4 mg capsule, 0 h",0 ng/mL
same,Active substance concentration,"[2]; 4 mg, 0.50 h",0 ng/mL
same,Cmax,"[2]; human, plasma, po, 2 mg, 2 mg capsule",82 ng/mL
same,Tmax,"[2]; human, plasma, po, 2 mg",1.75 h
same,Cmax,"[2]; human, plasma, po, 4 mg, 4 mg capsule",150 ng/mL
same,Tmax,"[2]; human, plasma, po, 4 mg",1.5 h
same,concentration at 0.5 h,"[2]; human, plasma, po, 2 mg capsule, 0.50 h",11 ng/mL
same,concentration at 0.75 h,"[2]; human, plasma, po, 2 mg",16 ng/mL
same,concentration at 1 h,"[2]; human, plasma, po, 2 mg",40 ng/mL
same,concentration at 1.25 h,"[2]; human, plasma, po, 2 mg",44 ng/mL
same,concentration at 1.5 h,"[2]; human, plasma, po, 2 mg",68 ng/mL
same,concentration at 1.75 h,"[2]; human, plasma, po, 2 mg",82 ng/mL
same,concentration at 2 h,"[2]; human, plasma, po, 2 mg",82 ng/mL
same,concentration at 2.5 h,"[2]; human, plasma, po, 2 mg",80 ng/mL
same,concentration at 3 h,"[2]; human, plasma, po, 2 mg",72 ng/mL
same,concentration at 3.5 h,"[2]; human, plasma, po, 2 mg",59 ng/mL
same,concentration at 4 h,"[2]; human, plasma, po, 2 mg",32 ng/mL
same,concentration at 0.75 h,"[2]; human, plasma, po, 4 mg",10 ng/mL
same,concentration at 1 h,"[2]; human, plasma, po, 4 mg",72 ng/mL
same,concentration at 1.25 h,"[2]; human, plasma, po, 4 mg",130 ng/mL
same,concentration at 1.5 h,"[2]; human, plasma, po, 4 mg",150 ng/mL
same,concentration at 1.75 h,"[2]; human, plasma, po, 4 mg",148 ng/mL
same,concentration at 2 h,"[2]; human, plasma, po, 4 mg",141 ng/mL
same,concentration at 2.5 h,"[2]; human, plasma, po, 4 mg",119 ng/mL
same,concentration at 3 h,"[2]; human, plasma, po, 4 mg",109 ng/mL
same,concentration at 3.5 h,"[2]; human, plasma, po, 4 mg",84 ng/mL
same,concentration at 4 h,"[2]; human, plasma, po, 4 mg",71 ng/mL
same,concentration at 5 h,"[2]; human, plasma, po, 4 mg, 5.00 h",64 ng/mL
same,concentration at 6 h,"[2]; human, plasma, po, 4 mg, 6.00 h",49 ng/mL
same,concentration at 7 h,"[2]; human, plasma, po, 4 mg, 7.00 h",21 ng/mL
same,concentration at 8 h,"[2]; human, plasma, po, 4 mg, 8.00 h",18 ng/mL
same,Glucose (mean),"glucose; 1 mg i.v., 0.00 h",6.10 mmol/L
same,Glucose (mean),"glucose; 1 mg p.o. capsule, 0.00 h",5.32 mmol/L
same,Glucose (mean),"glucose; 1 mg p.o. solution, 0.00 h",5.85 mmol/L
same,Glucose (mean),"glucose; i.v., 0.08 h",6.54 mmol/L
same,Glucose (mean),"glucose; i.v., 0.17 h",6.46 mmol/L
same,Glucose (mean),"glucose; i.v., 0.25 h",6.46 mmol/L
same,Glucose (mean),"glucose; i.v., 0.28 h",6.46 mmol/L
same,Glucose (mean),"glucose; i.v., 0.33 h",6.40 mmol/L
same,Glucose (mean),"glucose; i.v., 0.42 h",6.01 mmol/L
same,Glucose (mean),"glucose; i.v., 0.50 h",5.86 mmol/L
same,Glucose (mean),"glucose; i.v., 0.75 h",5.14 mmol/L
same,Glucose (mean),"glucose; i.v., 1.00 h",4.57 mmol/L
same,Glucose (mean),"glucose; i.v., 1.50 h",4.55 mmol/L
same,Glucose (mean),"glucose; i.v., 2.00 h (breakfast)",5.11 mmol/L
same,Glucose (mean),"glucose; i.v., 2.50 h",7.14 mmol/L
same,Glucose (mean),"glucose; i.v., 3.00 h",6.31 mmol/L
same,Glucose (mean),"glucose; i.v., 4.00 h",5.58 mmol/L
same,Glucose (mean),"glucose; i.v., 5.00 h (lunch)",5.48 mmol/L
same,Glucose (mean),"glucose; i.v., 6.00 h",6.53 mmol/L
same,Glucose (mean),"glucose; i.v., 9.00 h",6.49 mmol/L
same,Glucose (mean),"glucose; i.v., 24.00 h",6.24 mmol/L
same,Glucose (mean),"glucose; p.o. capsule, 0.25 h",6.08 mmol/L
same,Glucose (mean),"glucose; p.o. capsule, 0.50 h",5.87 mmol/L
same,Glucose (mean),"glucose; p.o. capsule, 0.75 h",5.85 mmol/L
same,Glucose (mean),"glucose; p.o. capsule, 1.00 h",5.57 mmol/L
same,Glucose (mean),"glucose; p.o. capsule, 1.50 h",5.24 mmol/L
same,Glucose (mean),"glucose; p.o. capsule, 2.00 h (breakfast)",5.04 mmol/L
same,Glucose (mean),"glucose; p.o. capsule, 3.00 h",5.04 mmol/L
same,Glucose (mean),"glucose; p.o. capsule, 4.00 h",4.43 mmol/L
same,Glucose (mean),"glucose; p.o. capsule, 5.00 h (lunch)",4.71 mmol/L
same,Glucose (mean),"glucose; p.o. capsule, 6.00 h",5.41 mmol/L
same,Glucose (mean),"glucose; p.o. capsule, 9.00 h",5.42 mmol/L
same,Glucose (mean),"glucose; p.o. capsule, 24.00 h",5.44 mmol/L
same,Glucose (mean),"glucose; p.o. solution, 0.25 h",6.13 mmol/L
same,Glucose (mean),"glucose; p.o. solution, 0.50 h",5.99 mmol/L
same,Glucose (mean),"glucose; p.o. solution, 0.75 h",5.83 mmol/L
same,Glucose (mean),"glucose; p.o. solution, 1.00 h",5.77 mmol/L
same,Glucose (mean),"glucose; p.o. solution, 1.50 h",5.40 mmol/L
same,Glucose (mean),"glucose; p.o. solution, 2.00 h (breakfast)",5.11 mmol/L
same,Glucose (mean),"glucose; p.o. solution, 3.00 h",5.40 mmol/L
same,Glucose (mean),"glucose; p.o. solution, 4.00 h",4.86 mmol/L
same,Glucose (mean),"glucose; p.o. solution, 5.00 h (lunch)",5.12 mmol/L
same,Glucose (mean),"glucose; p.o. solution, 6.00 h",5.60 mmol/L
same,Glucose (mean),"glucose; p.o. solution, 9.00 h",5.68 mmol/L
same,Glucose (mean),"glucose; p.o. solution, 24.00 h",5.60 mmol/L
